From US12187728B2 (Raze Therapeutics, Inc., priority 2015, dated 2025) come the findings set out here.

A value given as a limit tells only on which side of the number the result lay.

In this assay the target is T1, Human MTHFD2 (Homo sapiens, UniProt P13995).
T1 construct: residues 36-350 in Uniport ID P13995; His6 (N); made in house; host or cells: E. coli
T1 sequence (P13995 36-350): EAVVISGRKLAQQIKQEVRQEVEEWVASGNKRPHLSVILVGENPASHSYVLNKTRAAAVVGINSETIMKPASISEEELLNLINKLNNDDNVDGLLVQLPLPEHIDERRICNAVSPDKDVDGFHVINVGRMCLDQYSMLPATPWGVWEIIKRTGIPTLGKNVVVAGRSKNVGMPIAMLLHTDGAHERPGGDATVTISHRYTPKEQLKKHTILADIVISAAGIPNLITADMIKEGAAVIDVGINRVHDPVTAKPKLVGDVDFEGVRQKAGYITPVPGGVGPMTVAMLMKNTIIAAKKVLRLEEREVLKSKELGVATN
Briefly: MTHFD2 Activity Assay (dehydrogenase activity, diaphorase/resazurin coupled fluorescence). As to conditions: inhibitory activity (IC50 and/or binding constant); 0.2 nM MTHFD2, 11 concentrations. Format: biochemical. The essentials: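 Steps: compound + 0.2 nM enzyme, 15 min, pH 8.0 Hepes buffer; add 70 μM CH2-THF, 1 mM NAD+, 100 μM resazurin, diaphorase; 30 min; quench with EDTA; read fluorescence. Data normalized to DMSO (100%) and no-enzyme (0%) wells.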
The compound `Cc1cccc2[nH]c(Cn3c(=O)c4c(nc(Nc5ccncc5)n4C)n(C)c3=O)cc12` [Example 328, 1-((4-methyl-1H-indol-2-yl)methyl)-3,7-dimethyl-8-(pyridin-4-ylamino)-1H-purine-2,6(3H,7H)-dione] gave an IC50 of 10 to 1000 nM. Turning to `Cn1c(N[C@H](CO)CC2CCCCC2)nc2c1c(=O)n(Cc1ccc(C(F)(F)F)cc1)c(=O)n2C` [Example 120, (S)-8-(1-cyclohexyl-3-hydroxypropan-2-ylamino)-3,7-dimethyl-1-(4-(trifluoromethyl)benzyl)-1H-purine-2,6(3H,7H)-dione], the IC50 is over 10000 nM. In turn, `Cn1c(Nc2cccc([C@@H]3C[C@H]3C(N)=O)n2)nc2c1c(=O)n(Cc1cc3c(Cl)cccc3[nH]1)c(=O)n2C` (racemic) [Example 364, (±)-trans-2-(6-((1-((4-chloro-1H-indol-2-yl)methyl)-3,7-dimethyl-2,6-dioxo-2,3,6,7-tetrahydro-1H-purin-8-yl)amino)pyridin-2-yl)cyclopropanecarboxamide] returned an IC50 of 10 to 1000 nM. As for `Cn1c(N[C@H]2CCCC[C@@H]2O)nc2c1c(=O)n(Cc1ccc(Cl)c(Cl)c1)c(=O)n2C` (racemic) [Example 91, (±)-1-[(3,4-dichlorophenyl)methyl]-8-{[(trans)-2-hydroxycyclohexyl]amino}-3,7-dimethyl-2,3,6,7-tetrahydro-1H-purine-2,6-dione±], the IC50 lay within 10 to 1000 nM. With `Cn1c(Nc2ccc(C(N)=O)cc2)nc2c1c(=O)n(Cc1cc3c(Cl)cccc3[nH]1)c(=O)n2C` [Example 420, 4-[[1-[(4-chloro-1H-indol-2-yl)methyl]-3,7-dimethyl-2,6-dioxo-purin-8-yl]amino]benzamide], the IC50 lay within 10 to 1000 nM. Compound `Cn1c(NC2CCC(CO)C2)nc2c1c(=O)n(Cc1ccc(Cl)c(Cl)c1)c(=O)n2C` (stereo not drawn) [Example 255, 1-(3,4-dichlorobenzyl)-8-(3-(hydroxymethyl)cyclopentylamino)-3,7-dimethyl-1H-purine-2,6(3H,7H)-dione] returned an IC50 of 10 to 1000 nM. Compound `COC(=O)c1ccc(Nc2nc3c(c(=O)n(Cc4ccc(Cl)c(Cl)c4)c(=O)n3C)n2C)cc1` [Example 154, Methyl 4-(1-(3,4-dichlorobenzyl)-3,7-dimethyl-2,6-dioxo-2,3,6,7-tetrahydro-1H-purin-8-ylamino)benzoate] had an IC50 of 1000 to 5000 nM. For the compound `Cn1c(Nc2ccnc(CCC(=O)N3CCCCC3)n2)nc2c1c(=O)n(Cc1cc3c(Cl)cccc3[nH]1)c(=O)n2C` [Example 406, 1-((4-chloro-1H-indol-2-yl)methyl)-3,7-dimethyl-8-(2-(3-oxo-3-(piperidin-1-yl)propyl)pyrimidin-4-ylamino)-1H-purine-2,6(3H,7H)-dione], the half-maximal inhibitory concentration (IC50) lay within 10 to 1000 nM. To `Cn1c(NC(CO)CO)nc2c1c(=O)n(Cc1ccc(Cl)c(Cl)c1)c(=O)n2C` [Example 53, 1-[(3,4-dichlorophenyl)methyl]-8-[(1,3-dihydroxypropan-2-yl)amino]-3,7-dimethyl-2,3,6,7-tetrahydro-1H-purine-2,6-dione] belongs 10 to 1000 nM; to `Cn1c(Nc2ccnc([C@H]3C[C@H]3C(=O)O)c2)nc2c1c(=O)n(Cc1ccc(Cl)c(Cl)c1)c(=O)n2C` (racemic) [Example 332, (±)-cis-2-(4-((1-(3,4-dichlorobenzyl)-3,7-dimethyl-2,6-dioxo-2,3,6,7-tetrahydro-1H-purin-8-yl)amino)pyridin-2-yl)cyclopropanecarboxylic acid], 10 to 1000 nM. To `CC(N)c1nc2c(c(=O)n(Cc3cc4c(Cl)cccc4[nH]3)c(=O)n2C)n1C` (stereo not drawn) [Example 389, 8-(1-aminoethyl)-1-[(4-chloro-1H-indol-2-yl)methyl]-3,7-dimethyl-purine-2,6-dione] belongs 10 to 1000 nM; to `Cn1c(-n2nccc2N)nc2c1c(=O)n(Cc1cc3cc(Cl)ccc3[nH]1)c(=O)n2C` [Example 219, 8-(5-amino-1H-pyrazol-1-yl)-1-((5-chloro-1H-indol-2-yl)methyl)-3,7-dimethyl-1H-purine-2,6(3H,7H)-dione], 10 to 1000 nM; to `CC(CN)c1nc2c(c(=O)n(Cc3cc4c(Cl)cccc4[nH]3)c(=O)n2C)n1C` (stereo not drawn) [Example 485, 8-(1-aminopropan-2-yl)-1-((4-chloro-1H-indol-2-yl)methyl)-3,7-dimethyl-1H-purine-2,6(3H,7H)-dione], 10 to 1000 nM. To `COc1cc(Nc2nc3c(c(=O)n(Cc4cc5c(Cl)cccc5[nH]4)c(=O)n3C)n2C)ccn1` [Example 333, 1-[(4-chloro-1H-indol-2-yl)methyl]-8-[(2-methoxy-4-pyridyl)amino]-3,7-dimethyl-purine-2,6-dione] belongs 10 to 1000 nM. On to `Cn1c(Nc2ccc(CO)nc2)nc2c1c(=O)n(Cc1cc3c(Cl)cccc3[nH]1)c(=O)n2C` [Example 407, 1-((4-chloro-1H-indol-2-yl)methyl)-8-(6-(hydroxymethyl)pyridin-3-ylamino)-3,7-dimethyl-1H-purine-2,6(3H,7H)-dione], for which the IC50 lay in the range of 10 to 1000 nM.

`Cn1c(N)nc2c1c(=O)n(Cc1cc3ccccc3[nH]1)c(=O)n2C` [Example 231, 1-((1H-indol-2-yl)methyl)-8-amino-3,7-dimethyl-1H-purine-2,6(3H,7H)-dione] gave an IC50 of 5000 to 10000 nM.

Consider `Cn1c(Nc2ccnc(CCC(N)=O)n2)nc2c1c(=O)n(Cc1cc3c(Cl)cccc3[nH]1)c(=O)n2C` [Example 378, 3-(4-(1-((4-chloro-1H-indol-2-yl)methyl)-3,7-dimethyl-2,6-dioxo-2,3,6,7-tetrahydro-1H-purin-8-ylamino)pyrimidin-2-yl)propanamide], for which the IC50 lay in the range of 10 to 1000 nM. As for `Cn1cnc2c1c(=O)n(Cc1cc3ccccc3n1C)c(=O)n2C` [Example 235, 3,7-dimethyl-1-((1-methyl-1H-indol-2-yl)methyl)-1H-purine-2,6(3H,7H)-dione], the IC50 was 1000 to 5000 nM. The compound `Cn1c(Nc2ccncc2)nc2c1c(=O)n(Cc1cc3ccccc3[nH]1)c(=O)n2C` [Example 174, 1-((1H-indol-2-yl)methyl)-3,7-dimethyl-8-(pyridin-4-ylamino)-1H-purine-2,6(3H,7H)-dione] came in with a half-maximal inhibitory concentration (IC50) of 10 to 1000 nM. As to `Cn1c(Nc2ccncc2)nc2c1c(=O)n(Cc1ccc(Cl)c(Cl)c1)c(=O)n2C` [Example 125, 1-(3,4-dichlorobenzyl)-3,7-dimethyl-8-(pyridin-4-ylamino)-1H-purine-2,6(3H,7H)-dione], the IC50 was in the range of 10 to 1000 nM. `COc1ccc(Cn2c(=O)c3c(nc(NC[C@H](C)O)n3C)n(C)c2=O)cc1` [Example 34, 8-{[(2S)-2-hydroxypropyl]amino}-1-[(4-methoxyphenyl)methyl]-3,7-dimethyl-2,3,6,7-tetrahydro-1H-purine-2,6-dione] came in with an IC50 of over 10000 nM. For `Cn1c(NC2CCNC(=O)C2)nc2c1c(=O)n(Cc1cc3ccccc3[nH]1)c(=O)n2C` (racemic) [Example 215, (±)-1-((1H-indol-2-yl)methyl)-3,7-dimethyl-8-(2-oxopiperidin-4-ylamino)-1H-purine-2,6(3H,7H)-dione], the IC50 was 10 to 1000 nM. Compound `Cc1cccc2cc(Cn3c(=O)c4c(nc(C(C)N)n4C)n(C)c3=O)ccc12` (stereo not drawn) [Example 448, 8-(1-aminoethyl)-3,7-dimethyl-1-((5-methylnaphthalen-2-yl)methyl)-1H-purine-2,6(3H,7H)-dione] yielded an IC50 of 10 to 1000 nM. `Cn1c(NC(=O)C(F)(F)F)nc2c1c(=O)n(Cc1cc3c(Cl)cccc3[nH]1)c(=O)n2C` [Example 422, N-[1-[(4-chloro-1H-indol-2-yl)methyl]-3,7-dimethyl-2,6-dioxo-purin-8-yl]-2,2,2-trifluoro-acetamide] displayed a half-maximal inhibitory concentration (IC50) of 10 to 1000 nM.
